According to publication PMC12471299, “Secondary Metabolites of the Marine Sponge-Derived Fungus Aspergillus subramanianii 1901NT-1.40.2 and Their Antimicrobial and Anticancer Activities” (Marine Drugs, 2025):
Where two headings read alike, the source gives them in different places.

How the values were obtained:
[1] = system: vancomycin-resistant enterococci strains; parameters: method as in PMID 29642369; details: cited from earlier work
[2] = Cell viability assay (MTT); assay type: cell-based, human; details: human, read-out: Cytotoxicity IC50
In short: (§1)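 Cells were seeded (H9c2 3 × 10^3, MDA-MB-231 and MCF-10A 5 × 10^3, HaCaT 1 × 10^4 cells/well), left 24 h, then exposed to compounds up to 100 µM for 24 h or 48 h at 37 °C, 5% CO2. Viability was read by MTT and expressed as percentage of DMSO control.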

[3] = system: MDA-MB-231 breast cancer cells; experiment: Cell viability assay (MTT); assay type: cell-based, human
In short: as §1

[4] = system: Staphylococcus aureus ATCC 21027; experiment: Biofilm formation assay (MTT); assay type: cell-based; details: S. aureus, 18 h
In short: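 Strains were precultured on Mueller Hinton agar at 37 °C for 24 h, then exposed to compound at up to 100 µM. Growth was read as OD620 after 18 h; 18 h biofilm formation was quantified with MTT at OD570. Values are MIC50, the lowest concentration cutting growth or biofilm by 50% versus 1% DMSO/PBS control.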

MCF-7 cells [5] = experiment: Proliferation assay (CFDA SE, flow cytometry); assay type: cell-based, human; details: 5 µM, 48 h
Protocol: MCF-7 cells at a concentration of 1.2 × 10^4 cells/well were seeded in a 12-well plate for 24 h. After adhesion, the cells were stained with (5,6)-carboxyfluorescein succinimidyl ester (CFDA SE) dye (LumiTrace CFDA SE kit; Lumiprobe, Moscow, Russia). Thereafter, the compound (5 µM) was added to the wells.
After 48 h of incubation, the cells were washed twice with PBS, scraped, and collected. The intensity of CFDA fluorescence was analyzed using a NovoCyte flow cytometer (Agilent, Austin, TX, USA), and the data were analyzed as previously described.

[6] = Competitive assay with 4-hydroxytamoxifen (MTT viability); assay type: cell-based; details: human
Protocol: Since estrogen-dependent breast cancer MCF-7 cells were proposed to be more sensitive to compound 8, the estrogen receptor (ER) dependence of petromurin C (8) cytotoxicity to estrogen-dependent MCF-7 cells was investigated using 4-hydroxytamoxifen (4-OHT) as an ERs antagonist. MCF-7 cells were pretreated with 4-OHT at a nontoxic concentration of 0.1 µM for 1 h, and 8 at 10 µM was added for 48 h. The antagonist of estrogenic receptors, 4-hydroxytamoxifen (Lumiprobe, Moscow, Russia), was dissolved in DMSO at a concentration of 10 mM and stored with protection from light. The probe was then added to the cells at a final concentration of 1 µM. The investigated compounds were added to the cells after 1 h. Then the viability of MCF-7 cells was measured after 48 h using MTT assay (Section 4.8.3).

MCF-7 cells [7] = experiment: MCF-7 cell colony formation (clonogenic) assay; assay type: cell-based; details: Homo sapiens, MCF7, 240 h, 10 d
Protocol: The effect of the compound on colony formation by MCF-7 cells was assessed using a clonogenic assay. The concentration of MCF-7 cells was 0.33 × 10^3/mL. The cells were incubated for 10 d, fixed with methanol (25 min), stained with 0.5% crystal violet solution (25 min), and washed with PBS. The grown colonies were counted using a BIO-PRINT-Cx4 Edge-Fixed Pad-Container (Vilber, Collegien, France). The results are presented as colony inhibition compared to that of the control.

[8] = MCF-7 breast cancer cells, MCF-7, 24 h
[9] = MCF-7 breast cancer cells, MCF-7, 48 h
[10] = MCF-10A breast epithelial cells, MCF10A, 24 h
[11] = MCF-10A breast epithelial cells, MCF10A, 48 h
[12] = MDA-MB-231 breast cancer cells, MDA-MB-231, 24 h
[13] = MDA-MB-231 breast cancer cells, MDA-MB-231, 48 h

| SMILES | IC50 at 24 h ([2]; HaCaT keratinocytes, 24 h) [µM] | IC50 at 48 h ([2]; HaCaT keratinocytes, 48 h) [µM] | IC50 at 24 h [2, 8] [µM] | IC50 at 48 h [2, 9] [µM] | IC50 at 24 h [2, 10] [µM] | IC50 at 48 h [2, 11] [µM] | IC50 at 24 h [2, 12] [µM] | IC50 at 48 h [2, 13] [µM] | cell viability ([3]; MDA-MB-231, 24 h, 1.0 µM) | cell viability ([3]; MDA-MB-231, 24 h, 10.0 µM) | cell viability ([3]; MDA-MB-231, 24 h, 100.0 µM) | cell viability ([3]; MDA-MB-231, 48 h, 1.0 µM) | cell viability ([3]; MDA-MB-231, 48 h, 10.0 µM) | cell viability ([3]; MDA-MB-231, 48 h, 100.0 µM) | other results |
| --- | --- | --- | --- | --- | --- | --- | --- | --- | --- | --- | --- | --- | --- | --- | --- |
| COC1=C(c2c[nH]c3ccccc23)C(=O)C(CC=C(C)C)=C(c2c[nH]c3ccccc23)C1=O [Compound 6, kumbicin D] | > 100 | 49.4 ± 1.2 | 62.2 ± 2.2 | 47.3 ± 1.7 | 65.7 ± 1.9 | 55.6 ± 2.3 | 74.4 ± 0.6 | 58.2 ± 2 | 93.6 ± 4.8 % of control | 84.5 ± 6.7 % of control | 32.7 ± 5.2 % of control | 100.6 ± 2.2 % of control | 90.8 ± 1.2 % of control | 14.7 ± 0.6 % of control | antibacterial activity [1]: not active; Biofilm formation, MIC50 [4]: 7.98 ± 0.57 µM |
| COc1c(OC)c(-c2c[nH]c3ccc(O)cc23)c(OC)c(OC)c1-c1c[nH]c2ccccc12 [Compound 8, petromurin C] | > 100 | 80.5 ± 1.8 | > 100 | 61.5 ± 1.2 | ≥ 100 | 91 ± 4.1 | > 100 | 79.9 ± 1.2 | 89.4 ± 2.4 % of control | 103.6 ± 2.2 % of control | 63.7 ±4.8 % of control | 102.9 ± 0.5 % of control | 89.5 ± 3.1 % of control | 38.6 ± 1.7 % of control | percentage of cells in division 1 (MCF-7 cells [5]): 76.9%; percentage of cells in division 2 (MCF-7 cells [5]): 15.2%; percentage of cells in division 3 (MCF-7 cells [5]): 5.5%; viability at 48 h, 10 µM ([6]; MCF-7 cells pretreated with 4-hydroxytamoxifen, 4-OHT 0.1 µM for 1 h, then 8 at 10 µM, read-out: viability of 4-OHT-pretreated MCF-7 cells): 84.4 ± 1.1%; viability at 48 h, 10 µM ([6]; MCF-7 cells, 8 at 10 µM, no 4-OHT, read-out: viability of MCF-7 cells): 76.1 ± 1.6%; inhibition at 5 µM (MCF-7 cells [7]; 5 µM): 16.8%; inhibition at 10 µM (MCF-7 cells [7]; 10 µM): 20.4% |
